Results taken from article PMC7603451, “A novel human pluripotent stem cell-based assay to predict developmental toxicity” (Archives of Toxicology, 2020).
Read-outs that look alike come from different tables or passages of the source.

Assays:
[1] = test system: BIONi010-C hiPSC grown in monolayer; assay: Cytotoxicity, CellTiter-Glo 2.0 ATP-based cell viability assay; set-up: species or system human; conditions: for concentration showing cytotoxicity: human, 48 h
Protocol: Before initiating tests on cardiomyocyte differentiation for test chemicals, cell viability was determined to ascertain that any further testing was done at non-cytotoxic concentrations. On the day of the experiment, 50 µl/well hESC-Qualified Matrigel (354,277, Corning) was added to flat-bottom 96-well plates (Corning) and incubated at 37 °C and 95% humidity until use. BIONi010-C hiPSC were harvested from a […] by Gibco™ TrypLE™ Select (Thermo Fisher Scientific) and a single-cell suspension was prepared in mTeSR™1 serum-free medium (STEMCELL Technologies). Matrigel was removed from plates and a final concentration of 1 × 10^4 cells/well was added. After 24 h, mTESR1 medium was exchanged for fresh medium. Cell were exposed to the test chemicals after another 24 h and for 48 h in total with a vehicle kept constant across the plates at 0.1%. […] Assay reagent (100 µl/well) was added, plates were left on a shaker table for 2 min and successively for 10 min at room temperature. Lysates were transferred to white plates and luminescence was measured (EnSpire, Perkin Elmer).

[2] = test system: IMR90-4 hiPSC embryoid bodies differentiating into cardiomyocytes; assay: PluriBeat assay, beat score of EBs, IMR90-4; conditions: for effect on beat score: up to maximum concentration tested
Protocol: (§1) Cardiac differentiation was performed as published (Fischer et al. [2018]) with slight modifications. Briefly, hiPSC were harvested from culture dishes with good colony morphology (day 5–6 after split) by removing medium and adding Gibco™ TrypLE™ Select (Thermo Fisher Scientific) for 1–2 min. As soon as single cells appeared at the borders of the colonies, TrypLE was removed by suction and the cells harvested as single cells in mTeSR-ROCK (mTeSR1 with 10 µM Y27632 dihydrochloride). Cells were counted and 5 × 10^4 cells/ml were seeded at 100 µl per well into a 96-well Polystyrene Conical Bottom MicroWell™ Plate (249,952, Thermo Fisher Scientific). The plates were centrifuged at 500g for 5 min at room temperature. After 20 h of incubation, EBs had formed (one EB per well) and cardiac differentiation was induced by exchanging 80 µl medium to D0 medium. All medium recipes are included in supplementary Table 1. After 24 ± 2 h, 80 µl medium was exchanged to TS medium. After 24 ± 2 h, 80 µl medium were exchanged to Wnt medium. After 24 ± 2 h, 80 µl medium was exchanged with TS medium. Three days later (72 ± 2 h), 60 µl medium was exchanged with 80 µl fresh TS medium added per well. The following day beating of the cardiomyocyte containing EBs was scored.
(§2) Test compounds were added to the specific daily differentiation medium before medium exchange on the 96-well plates. Vehicle was kept constant across the plates at 0.1%. Thirty-two EBs were exposed to each concentration in each experiment. On the last day of the assay, the beat score was determined as follows: Each EB was observed until contraction was seen, though for a maximum of 10 s. If no movement was seen, the beat score 0 was given. If the entire area of the sphere contracted, a beat score of 2 was given. Everything in between was given a score of 1.
(§3) The beat score for each condition was determined as the average beat score of the 32 EBs. All experiments were performed in biological triplicates if not stated otherwise. For gene expression analysis and compound testing, data from 32 EBs (= 32 wells each containing one EB) were analyzed for a given concentration or time point.
(§4) IC25 values were defined as absolute IC25 values giving the concentration that inhibits the beat score by 25%. […] Calculations were based on the beat score of > 90 EBs from three independent experiments per cell line.
(§5) The following analysis was performed in the statistical program R-studio: To analyze the impact of the test compounds on the beat score, we performed an ordinal logistic regression using the polr package in R with beat score and concentration as factors on n ≥ 90 EBs from three biological replicates. The LOEC was defined as the lowest observable effect concentration of test compound causing an effect with a p value < 0.05.

mouse ESCs = conditions: cited from earlier work
IMR90-1 EBs = assay: EB volume after exposure, IMR90-1; format: cell-based, human; conditions: for concentration with effect on EB volume: IMR90-1, last day of assay
Protocol: (§6) The average of 32 EBs per condition was analyzed. […] EB size was analysed using a one-way ANOVA without matching and multiple comparisons with Dunnett’s correction.

IMR90-4 EBs = assay: EB volume after exposure, IMR90-4; format: cell-based, human; conditions: for concentration with effect on EB volume: IMR90-4, last day of assay
Protocol: as §6

BIONi010-C EBs = assay: EB volume after exposure, BIONi010-C; format: cell-based, human
Protocol: as §6

[3] = test system: EBs made from the three cell lines BIONi010-C, IMR90-1, and IMR90-4; assay: PluriBeat assay, statements without a named cell line
Protocol: as §2
For analysis of the EB size, the EBs were imaged with a light microscope after assessing the beat score. The plates were left at room temperature to decrease the beat rate before imaging, thereby decreasing the risk of false small outliers due to contractions. The images were further analyzed with ImageJ, where the diameter of the individual EBs was measured manually. From this, the volume of each EB was calculated and the average of the controls on each plate set to 100% to calculate the volume (%) for the exposed EBs. The average of 32 EBs per condition was analyzed.

[4] = test system: IMR90-1 hiPSC embryoid bodies differentiating into cardiomyocytes; assay: PluriBeat assay, beat score of EBs, IMR90-1
Protocol: as §1, §2, §3, §4, §5

[5] = test system: BIONi010-C hiPSC embryoid bodies differentiating into cardiomyocytes; assay: PluriBeat assay, beat score of EBs, BIONi010-C
Protocol: as §1, §2, §3, §4, §5

hESCs = test system: hESCs; set-up: method as in Kameoka et al. [2014]; conditions: hESC monolayer, 3 days; ref Kameoka et al. [2014]; cited from earlier work
[6] = cited from earlier work
hiPSC = conditions: cited from earlier work
rat embryos = test system: rat embryos; set-up: method as in Rettie et al. [1986]; conditions: ex vivo rat embryos, gestation day 10; ref Rettie et al. [1986]; cited from earlier work
[7] = test system: in vitro assays for developmental toxicity; conditions: previous in vitro developmental toxicity studies, cited from earlier work
[8] = IMR90-4, beat score on last day of assay, lowest concentration with p < 0.05
[9] = human, 8 days (beat score read on the last day of the assay)

Compound: Fc1ccc([C@]2(Cn3cncn3)O[C@H]2c2ccccc2Cl)cc1 (racemic) [Epoxiconazole, epoxiconazole]
- concentration showing cytotoxicity [1]: ≥ 50 µM
- LOEC [2, 8]: 1.3 µM
- concentration at which EBs stopped beating ([2]; human, 7 days): 2.5 µM
- embryotoxicity in the mEST (mouse ESCs): weakly embryotoxic
- IC50 (mouse ESCs; mEST based on mouse ESCs, ref Dreisig et al. [2013]): 34 µM
- effect on EB volume (IMR90-1 EBs): non-significant trend
- effect on EB volume (IMR90-4 EBs): significantly smaller spheres
- effect on EB volume (BIONi010-C EBs): significantly smaller spheres
- lowest concentration decreasing the beating (LOEC) ([3]; beat score, cell line not stated): 1.3 µM
- proportion of beating cardiac EBs [3, 9]: ~0%
- LOEC ([4]; IMR90-1, beat score on last day of assay, lowest concentration with p < 0.05): 1.3 µM
- concentration at which EBs stopped beating ([4]; human, 7 days): 2.5 µM
- LOEC ([5]; BIONi010-C, beat score on last day of assay, lowest concentration with p < 0.05): 5 µM

Compound: O=C1CCC(N2C(=O)c3ccccc3C2=O)C(=O)N1 (stereo not shown) [Thalidomide, thalidomide]
- IC50 (hESCs): 0.5 µM
- effect on viability ([1]; BIONi010-C monolayer, 48 h exposure, 25, 50, 100 and 200 µM): did not reduce viability in any of the concentrations tested
- concentration showing cytotoxicity [1]: > 200 µM
- LOEC [2, 8]: no LOEC could be determined
- effect on beat score ([2]; IMR90-4): non-significant trend
- IC25 (absolute inhibition concentration of 25%) with 95% confidence intervals ([2]; human, 7 days): > 36 µM
- LOEC ([2]; human, 7 days): > 36 µM
- concentration with effect on EB volume (IMR90-1 EBs): ≥ 2.3 µM
- clinical plasma concentrations for therapeutic use ([6]; human, ref Chung et al. [2004], Kodama et al. [2009]): 1 to 6 µM
- internal exposure ([6]; regular dose for pregnant women of 200 mg, ref Teo et al. [2004]): 4.7 µM
- concentration with effect on EB volume (IMR90-4 EBs): ≥ 18 µM
- concentration with significant decrease in EB volume (BIONi010-C EBs; BIONi010-C, last day of assay): ≥ 2.3 µM
- decrease of EB volume ([3]; human, 7 days, 2.3 µM): ~60%
- lowest concentration decreasing the beating (LOEC) [3, 9]: 2.3 µM
- LOEC ([4]; human, 7 days): 2.3 µM
- IC50 (hiPSC; original EST protocol, ref Aikawa et al. [2014]): 450 µM
- IC50 (hiPSC; ref Aikawa [2020]): 5.5 µM
- LOEC ([5]; human, 7 days): 2.3 µM

Compound: CCCC(CCC)C(=O)O [Valproic acid, valproic acid]
- concentration with toxic effects (rat embryos): 800 µM
- reduction of viability ([1]; BIONi010-C monolayer, 48 h exposure, 400 µM): more than 20%
- concentration showing cytotoxicity [1]: above 300 µM
- effect on beat score ([2]; IMR90-4): did not lead to a significant decrease in beat score
- IC25 (absolute inhibition concentration of 25%) with 95% confidence intervals ([2]; human, 7 days): > 300 µM
- LOEC ([2]; human, 7 days): > 300 µM
- concentration with effect on EB volume (IMR90-1 EBs): 200 µM
- therapeutic serum levels ([6]; human, ref Dasgupta [2016]): around 700 µM
- concentration with effect on EB volume (IMR90-4 EBs): 300 µM
- effect on EB volume (BIONi010-C EBs; BIONi010-C, last day of assay): did not lead to apparent effects
- effect on beat score ([4]; IMR90-1, up to maximum concentration tested): did not lead to a significant decrease in beat score
- IC25 (absolute inhibition concentration of 25%) with 95% confidence intervals ([4]; human, 7 days): > 300 µM
- LOEC ([4]; human, 7 days): > 300 µM
- effect on beat score ([5]; BIONi010-C, up to maximum concentration tested): did not lead to a significant decrease in beat score
- IC25 (absolute inhibition concentration of 25%) with 95% confidence intervals ([5]; human, 7 days): > 300 µM
- LOEC ([5]; human, 7 days): > 300 µM
- IC50 ([7]; ref Aikawa et al. [2014], Shinde et al. [2016]): 868 to 1000 µM
- IC50 ([7]; ref Uibel et al. [2010], Palmer et al. [2013], Kameoka et al. [2014], Aikawa [2020]): 3 to 205 µM
